In brackets after ≈: the same amount, converted by molar mass. Several values for one entry are separate records, joined by “and”; a condition that tells them apart may be missing. Equal entries are not always repeated. Where two headings read alike, the source gives them in different places.
Experiments:
[1] = tested on: Staphylococcus aureus X1.1; experiment: MIC, standard agar-dilution assay, Staphylococcus aureus X1.1; assay type: cell-based; details: Staphylococcus aureus, X1.1
[2] = tested on: Staphylococcus aureus; experiment: MIC, broth-dilution microtiter test, Staphylococcus aureus; assay type: cell-based; details: broth-dilution microtiter, read-out: MIC
From the text: (§1) The MIC's in Table X were obtained using conventional broth-dilution microtiter tests.

[3] = tested on: Pasteurella hemolytica 22C; experiment: MIC, broth-dilution microtiter test, Pasteurella hemolytica 22C; assay type: cell-based; details: Pasteurella hemolytica 22C; broth-dilution microtiter; read-out: MIC
From the text: as §1

[4] = tested on: Streptococcus Group D X66; experiment: MIC, standard agar-dilution assay, Streptococcus Group D X66; assay type: cell-based
[5] = tested on: Haemophilus influenzae R252; experiment: MIC, standard agar-dilution assay, Haemophilus influenzae R252; assay type: cell-based; details: Haemophilus influenzae, R252
[6] = tested on: Mycoplasma hyorhinis; experiment: MIC, broth-dilution microtiter test, Mycoplasma hyorhinis; assay type: cell-based; details: Mycoplasma
From the text: as §1

[7] = tested on: Streptococcus pneumoniae Park I; experiment: microbe, parasite or virus in culture; assay type: cell-based
[8] = tested on: Pasteurella multocida; experiment: Subcutaneous treatment of Pasteurella multocida-infected chicks; assay type: in vivo, one-day-old chicks; details: 30 mg/kg × 2, 1 and 4 hours post-challenge
Experimental: Many of the C-20 modified derivatives of this invention have also shown in vivo antibacterial activity against infections induced by gram-negative bacteria. Tables XII and XIII summarize the results of tests in which illustrative compounds were evaluated against Pasteurella infection in one-day-old chicks. The compounds were administered parenterally or orally after challenge of the chicks with Pasteurella multocida (0.1 ml of a 10^-4 dilution of a twenty-hour tryptose broth culture of an avian P. multocida given subcutaneously). In these tests, unless indicated otherwise, all non-medicated infected chicks died within 24 hours of Pasteurella challenge. In the tests summarized in Table XII the compounds were administered by subcutaneous injection at a dosage of 30 mg/kg, 1 and 4 hours post-challenge of the chicks with P. multocida. In the test summarized in Table XIII the compounds were administered by gavage at 1 and 5 hours post-challenge of the chicks with P. multocida.

[9] = tested on: Staphylococcus epidermidis EPI1; experiment: MIC, standard agar-dilution assay, Staphylococcus epidermidis EPI1; assay type: cell-based
[10] = tested on: Pasteurella multocida 60A; experiment: MIC, broth-dilution microtiter test, Pasteurella multocida 60A; assay type: cell-based; details: Pasteurella multocida 60A; avian isolate; broth-dilution microtiter; read-out: MIC
From the text: as §1

[11] = tested on: Staphylococcus epidermidis EPI2; experiment: MIC, standard agar-dilution assay, Staphylococcus epidermidis EPI2; assay type: cell-based; details: Staphylococcus epidermidis EPI2; agar dilution; read-out: MIC
[12] = tested on: Mycoplasma gallisepticum; experiment: MIC, broth-dilution microtiter test, Mycoplasma gallisepticum; assay type: cell-based; details: Mycoplasmoides gallisepticum; Mycoplasma gallisepticum; broth-dilution microtiter; read-out: MIC
From the text: as §1

[13] = tested on: Mycoplasma hyopneumoniae; experiment: MIC, broth-dilution microtiter test, Mycoplasma hyopneumoniae; assay type: cell-based; details: Mesomycoplasma hyopneumoniae; Mycoplasma hyopneumoniae; broth-dilution microtiter; read-out: MIC
From the text: as §1

[14] = tested on: Staphylococcus aureus S13E; experiment: MIC, standard agar-dilution assay, Staphylococcus aureus S13E; assay type: cell-based; details: Staphylococcus aureus, S13E
[15] = tested on: Haemophilus influenzae Holt; experiment: MIC, standard agar-dilution assay, Haemophilus influenzae Holt; assay type: cell-based; details: Haemophilus influenzae
[16] = tested on: Streptococcus Group 9960; experiment: MIC, standard agar-dilution assay, Streptococcus Group 9960; assay type: cell-based; details: GROUP9960
[17] = tested on: Streptococcus bovis 80; experiment: MIC, broth-dilution microtiter test, Streptococcus bovis 80; assay type: cell-based; details: Streptococcus equinus; Streptococcus bovis 80; broth-dilution microtiter; read-out: MIC
From the text: as §1

[18] = tested on: Pasteurella multocida 17E; experiment: MIC, broth-dilution microtiter test, Pasteurella multocida 17E; assay type: cell-based; details: Pasteurella multocida 17E; bovine isolate; broth-dilution microtiter; read-out: MIC
From the text: as §1

[19] = tested on: Mycoplasma gallisepticum; experiment: Antimycoplasmal activity in chicks infected with Mycoplasma gallisepticum; assay type: in vivo, two- to three-day-old chicks; details: gavage five times, equivalent to 0.5 g/gal; for Number with Antibodies/Number Tested: antibodies to M. gallisepticum; for Number with Antibodies/Number Tested / Number with Air-Sac Lesions/Number Treated: 21 days post-infection
Experimental: In these tests infections were induced in chicks by injecting 0.2 ml of a broth culture of M. gallisepticum into the abdominal air sac of two- to three-day-old chicks. The compounds were administered by gavage five times at a dose equivalent to 0.5 g/gal (on the day of challenge once prior to and once following the challenge, two times on the next day and once on the third day). Twenty-one days post-infection, the chicks were weighed, a blood sample was taken, and the chicks were sacrificed. The presence or absence of air-sac lesions was recorded.

[20] = tested on: Streptococcus pyogenes C203; experiment: In vivo protection of mice experimentally infected with S. pyogenes C203; details: Streptococcus pyogenes, mice, doses given 1 and 4 hours post-infection
Experimental: The C-20 modified derivatives of this invention have shown in vivo antimicrobial activity against experimentally-induced infections in laboratory animals. When two doses of test compound were administered to mice experimentally infected with S. pyogenes C203, the activity observed was measured as an ED50 value [effective dose in mg/kg to protect 50% of the test animals: see Warren Wick, et al., J. Bacteriol. 81, 233-235 (1961)].

[21] = tested on: Mycoplasma synoviae; experiment: MIC, broth-dilution microtiter test, Mycoplasma synoviae; assay type: cell-based; details: Mycoplasmopsis synoviae; Mycoplasma synoviae; broth-dilution microtiter; read-out: MIC
From the text: as §1

[22] = tested on: Streptococcus pyogenes C203; experiment: MIC, standard agar-dilution assay, Streptococcus pyogenes C203; assay type: cell-based
[23] = tested on: Staphylococcus aureus V41; experiment: MIC, standard agar-dilution assay, Staphylococcus aureus V41; assay type: cell-based; details: Staphylococcus aureus, V41
[24] = tested on: Staphylococcus aureus X400; experiment: MIC, standard agar-dilution assay, Staphylococcus aureus X400; assay type: cell-based; details: Staphylococcus aureus, X400
[25] = tested on: Pasteurella multocida; experiment: Oral (gavage) treatment of Pasteurella multocida-infected chicks; assay type: in vivo, one-day-old chicks
Outline: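 Dosing either by gavage at 1 and 5 h after infection, or subcutaneously at 30 mg/kg at 1 and 4 h after infection. Birds were day-old chicks infected s.c. with 0.1 ml of avian Pasteurella multocida culture (twenty-hour tryptose broth, diluted 10^-4).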

[26] = in vivo; details: dog, po, 15 mg/kg
[27] = C203, sc, subcutaneous, read-out: ED50, Subcutaneous
[28] = C203, oral, read-out: ED50, Oral

Work on CCC1OC(=O)CC(O)C(C)C(OC2OC(C)C(O)C(N(C)C)C2O)C(CCOC(=O)COc2ccccc2)CC(C)C(=O)C=CC(C)=CC1COC1OC(C)C(O)C(OC)C1OC (stereo not drawn) [Compound 26, 20-DH-20-O-(Phenoxyacetyl)desmycosin] yielded an MIC [1] of 0.25 µg/mL (≈ 0.275 µM), an MIC [2] of 0.39 µg/mL (≈ 0.429 µM) and an MIC [3] of 12.5 µg/mL (≈ 13.8 µM). It also gave an MIC [4] of 0.5 µg/mL (≈ 0.551 µM), an MIC [5] of 8 µg/mL (≈ 8.81 µM) and an MIC [6] of 50 µg/mL (≈ 55.1 µM). For the same compound, the MIC ([7]; Streptococcus pneumoniae Park I, agar dilution, read-out: MIC) was 0.12 µg/mL (≈ 0.132 µM), the “Number of Deaths/Number Treated” value [8] was 8/10 and the MIC ([9]; Staphylococcus epidermidis, EPI1) was 0.25 µg/mL (≈ 0.275 µM). It also gave an MIC [10] of 6.25 µg/mL (≈ 6.88 µM), an MIC [11] of 0.12 µg/mL (≈ 0.132 µM) and an MIC [12] of less than 0.05 µg/mL. The MIC [13] was 0.78 µg/mL (≈ 0.859 µM), the MIC [14] was 0.25 µg/mL (≈ 0.275 µM) and the MIC [15] was 8 µg/mL (≈ 8.81 µM). The MIC [16] was 0.5 µg/mL (≈ 0.551 µM), the MIC [17] was 1.56 µg/mL (≈ 1.72 µM) and the MIC [18] was 6.25 µg/mL (≈ 6.88 µM). The “Number with Antibodies/Number Tested” value [19] was 7/9, the Mortality [19] was 1/10 and the “Number with Air-Sac Lesions/Number Treated” value [19] was 5/10. It also gave an ED50 [20, 27] of 2.4 mg/kg, an ED50 [20, 28] greater than 25 mg/kg and an MIC [21] of 1.56 µg/mL (≈ 1.72 µM). For the same compound, the MIC ([22]; Streptococcus pyogenes, C203) was 0.12 µg/mL (≈ 0.132 µM), the MIC [23] was 0.25 µg/mL (≈ 0.275 µM) and the MIC [24] was 0.5 µg/mL (≈ 0.551 µM).

In the case of CCC1OC(=O)CC(O)C(C)C(OC2OC(C)C(O)C(N(C)C)C2O)C(CCSc2nnnn2C)CC(C)C(=O)C=CC(C)=CC1COC1OC(C)C(O)C(OC)C1OC (stereo not drawn) [Compound 24, 20-DH-DO-20-[(1-N-Methyltetrazol-5-yl)thio]desmycosin], the MIC [1] is reported as 0.5 µg/mL (≈ 0.573 µM), the MIC [2] is reported as 0.78 µg/mL (≈ 0.894 µM) and the MIC [3] is reported as 12.5 µg/mL (≈ 14.3 µM). The MIC ([4]; Streptococcus Group D X66, agar dilution, read-out: MIC) was 16 µg/mL (≈ 18.3 µM), the MIC [6] was 50 µg/mL (≈ 57.3 µM) and the MIC ([7]; Streptococcus pneumoniae) was 2 µg/mL (≈ 2.29 µM). For the same compound, the “Number of Deaths/Number Treated” value [8] was 2/10 and 0/10, the MIC ([9]; Staphylococcus epidermidis EPI1, agar dilution, read-out: MIC) was 0.25 µg/mL (≈ 0.287 µM) and the MIC [10] was 12.5 µg/mL (≈ 14.3 µM). It also gave an MIC [12] of 1.56 µg/mL (≈ 1.79 µM), an MIC [13] of 12.5 µg/mL (≈ 14.3 µM) and an MIC [14] of 0.5 µg/mL (≈ 0.573 µM). The MIC ([16]; Streptococcus Group 9960, agar dilution, read-out: MIC) was 32 µg/mL (≈ 36.7 µM), the MIC [17] was 12.5 µg/mL (≈ 14.3 µM) and the MIC [18] was 12.5 µg/mL (≈ 14.3 µM). The “Number with Antibodies/Number Tested” value [19] was 10/10, the Mortality [19] was 0/10 and the “Number with Air-Sac Lesions/Number Treated” value [19] was 6/10. The ED50 [20, 27] was 2.4 mg/kg, the ED50 [20, 28] was 50 mg/kg and the MIC [21] was 0.78 µg/mL (≈ 0.894 µM). The MIC ([22]; Streptococcus pyogenes C203, agar dilution, read-out: MIC) was 0.25 µg/mL (≈ 0.287 µM), the “Number of Deaths/Number tested” value ([25]; 1.0 g/gal equivalent) was 2/9 and the “Number of Deaths/Number tested” value ([25]; 2.0 g/gal equivalent) was 1/9. It also gave an MIC [23] of 0.5 µg/mL (≈ 0.573 µM) and an MIC [24] of 1 µg/mL (≈ 1.15 µM).

Compound CC[C@H]1OC(=O)[C@H](C)[C@@H](O[C@H]2C[C@@](C)(OC)[C@@H](O)[C@H](C)O2)[C@H](C)[C@@H](O[C@@H]2O[C@H](C)C[C@H](N(C)C)[C@H]2O)[C@](C)(O)C[C@@H](C)C(=O)[C@H](C)[C@@H](O)[C@]1(C)O [erythromycin] has a Cmax [26] of 1600 ng/mL.

— US4443436A, “C-20-Modified macrolide derivatives of the macrolide antibiotics tylosin, desmycosin, macrocin, and lactenocin” (Eli Lilly and Company, priority 1982, dated 1984)
